Assay results: paper PMC10385834, “Curcumin Stereoisomer, Cis-Trans Curcumin, as a Novel Ligand to A1 and A3 Adenosine Receptors” (Pharmaceuticals, 2023)

Assays:
[1] = target: T1, A1AR (A1 adenosine receptor) (Homo sapiens, UniProt P30542); experiment: competition with fluorescent ligand CA200623 on transfected CHO-K1 cells; confirmed by confocal microscopy; assay type: cell-based
T1 construct: gene ADORA1
T1 sequence (P30542 1-326): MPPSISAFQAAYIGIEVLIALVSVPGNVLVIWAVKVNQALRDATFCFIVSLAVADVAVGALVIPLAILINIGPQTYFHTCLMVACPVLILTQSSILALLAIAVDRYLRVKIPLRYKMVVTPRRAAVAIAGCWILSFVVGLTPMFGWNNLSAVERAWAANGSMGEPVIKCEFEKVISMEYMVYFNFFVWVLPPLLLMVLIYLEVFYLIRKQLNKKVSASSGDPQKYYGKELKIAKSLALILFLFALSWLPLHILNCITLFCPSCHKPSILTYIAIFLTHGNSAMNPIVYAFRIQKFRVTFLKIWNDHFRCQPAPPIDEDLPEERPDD

[2] = target: T2, A3AR (A3 adenosine receptor) (Homo sapiens, UniProt P0DMS8); experiment: as above; assay type: cell-based
T2 construct: gene ADORA3
T2 sequence (P0DMS8 1-318): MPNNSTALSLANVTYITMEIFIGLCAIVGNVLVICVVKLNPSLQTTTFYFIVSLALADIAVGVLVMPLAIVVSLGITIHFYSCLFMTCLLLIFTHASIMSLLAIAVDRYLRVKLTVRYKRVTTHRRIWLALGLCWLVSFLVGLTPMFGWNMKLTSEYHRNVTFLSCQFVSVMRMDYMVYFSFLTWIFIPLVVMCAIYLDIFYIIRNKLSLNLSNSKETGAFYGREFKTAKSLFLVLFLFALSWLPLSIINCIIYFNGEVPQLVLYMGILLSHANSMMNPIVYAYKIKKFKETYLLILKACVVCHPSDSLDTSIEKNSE

## COc1cc(/C=C\C(=O)CC(=O)/C=C/c2ccc(O)c(OC)c2)ccc1O [CTCUR, cis-trans curcumin]
[1]
  Ki: 306 nM
[2]
  Ki: 400 nM
